Molecules are shown by their SMILES.

Assay type in all cases: cell-based
Assay [1] concerns the target T1, EGFR exon 20 ASV insertion (V769_D770insASV) (Homo sapiens, UniProt P00533, INS769ASV).
T1 construct: expressed in transfected cells; host or cells: Ba/F3 (murine pro-B) cells, lentiviral transduction with pLVX-IRES puro
The assay is described as follows: Ba/F3-EGFR-Exon20-ASV cell anti-proliferation assay (MTS, CellTiter 96 AQueous One). To be noted: Ba/F3-EGFR-Exon20-ASV cells, 72 h, MTS signal. From the text: (§1) A compound's ability in selectively inhibiting EGFR exon 20 insertion mutations can be assessed using Ba/F3 cells, a murine pro-B cell line, which have been transduced with EGFR exon 20 insertions. An expression vector, pLVX-IRES puro (Clontech) coding for human EGFR exon 20 insertions NPG (H773_V774insNPG) or ASV (V769_D770insASV), was transfected into HEK293 cells by the Trans-Lentiviral ORF Packaging System (Thermo Scientific), to produce virus encoding EGFR exon 20 insertions. Ba/F3 (DSMZ) cells maintained in RPM11640 medium supplemented with 10% fetal bovine serum, 200 pM L-glutamine/200 µg/mL penicillin/200 µg/mL streptomycin (Life Technology) and 10 ng/mL IL-3 (R&D system), were infected by EGFR Exon20 virus and subsequently selected by puromycin (Life Technology) selection and IL-3 depletion. Ba/F3 cells expressing EGFR exon 20 insertions (named Ba/F3-EGFR-Exon20-NPG or Ba/F3-EGFR-Exon20-ASV) can proliferate in the absence of IL-3. The anti-proliferative activity of compounds were determined as follows: BaF3-EGFR-Exon20 cells (NPG or ASV) seeded in 96 well plates (2500 cells/well) were treated with test compound (dissolved in DMSO) at a series of concentrations (4-fold dilution, top concentration: 10,000 nM). The plates were incubated for 72 h in a 37° C. incubator with 5% CO2, and the number of viable cells in each well were measured indirectly by CellTiter 96® Aqueous One Solution Cell Proliferation Assay (Promega) This assay is a colorimetric method for determining the number of viable cells through measurement of their metabolic activity by detection of enzymatic conversion of tetrazolium salts into blue formazan derivatives. Reagent (20 pL) was added into each well, and the plates were returned to the incubator for 2 h. The absorbance in each well was then measured at 490 nm using an Envision plate reader (Perkin Elmer). IC50 values were calculated by determining the concentration of compound required to decrease the MTS signal by 50% comparing to the DMSO control in best-fit curves using Microsoft XLfit software or Accelrys Pipeline Pilot.

For assay [2], the target named is T2, EGFR exon 19 deletion (E746-A750) and T790M mutation (Homo sapiens, UniProt P00533, DEL746-750/T790M).
T2 construct: expressed in transfected cells; host or cells: Ba/F3 (murine pro-B) cells, lentiviral transduction with pLVX-IRES puro
T2 sequence (P00533 with tags, fused parts or gaps DEL746-750/T790M): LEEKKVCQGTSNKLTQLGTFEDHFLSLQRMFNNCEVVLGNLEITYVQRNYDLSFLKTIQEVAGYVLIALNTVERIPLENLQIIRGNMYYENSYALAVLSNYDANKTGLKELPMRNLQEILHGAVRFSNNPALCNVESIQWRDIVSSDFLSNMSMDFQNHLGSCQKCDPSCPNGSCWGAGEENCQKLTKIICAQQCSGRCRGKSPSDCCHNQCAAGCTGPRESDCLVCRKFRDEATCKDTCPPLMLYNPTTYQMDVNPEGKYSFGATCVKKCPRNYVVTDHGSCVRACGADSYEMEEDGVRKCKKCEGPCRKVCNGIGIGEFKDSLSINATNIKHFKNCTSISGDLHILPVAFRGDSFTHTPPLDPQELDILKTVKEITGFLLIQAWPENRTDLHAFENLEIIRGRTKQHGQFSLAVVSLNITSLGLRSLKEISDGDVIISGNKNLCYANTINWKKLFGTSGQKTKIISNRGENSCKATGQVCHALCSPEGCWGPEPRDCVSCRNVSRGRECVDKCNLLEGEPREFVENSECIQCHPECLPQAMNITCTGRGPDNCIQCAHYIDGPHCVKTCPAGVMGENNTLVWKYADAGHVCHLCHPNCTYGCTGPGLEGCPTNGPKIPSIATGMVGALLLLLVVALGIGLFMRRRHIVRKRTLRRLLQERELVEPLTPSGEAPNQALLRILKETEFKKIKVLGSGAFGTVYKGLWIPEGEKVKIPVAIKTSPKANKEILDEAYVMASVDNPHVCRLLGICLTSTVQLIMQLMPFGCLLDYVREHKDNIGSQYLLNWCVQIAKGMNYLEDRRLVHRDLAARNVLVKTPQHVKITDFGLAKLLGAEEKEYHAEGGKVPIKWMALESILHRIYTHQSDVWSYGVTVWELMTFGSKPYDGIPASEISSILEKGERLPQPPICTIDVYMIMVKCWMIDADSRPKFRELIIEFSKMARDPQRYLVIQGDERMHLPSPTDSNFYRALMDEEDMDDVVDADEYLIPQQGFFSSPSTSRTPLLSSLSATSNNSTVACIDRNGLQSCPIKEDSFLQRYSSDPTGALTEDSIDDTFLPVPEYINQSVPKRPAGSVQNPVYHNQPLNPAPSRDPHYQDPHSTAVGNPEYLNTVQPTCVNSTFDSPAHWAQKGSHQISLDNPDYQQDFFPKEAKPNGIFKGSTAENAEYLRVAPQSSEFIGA
The assay is described as follows: Ba/F3-EGFR-Del/T790M cell anti-proliferation assay (MTS). Conditions: Ba/F3-EGFR-Del/T790M cells, 72 h, MTS signal. From the text:
A compound's ability in selectively inhibiting EGFR exon 19 deletion and T790M concurrent mutations can be assessed using Ba/F3 cells, a murine pro-B cell line, which have been transduced with EGFR exon 19 deletion and T790M mutation. An expression vector, pLVX-IRES puro (Clontech) coding for human EGFR E746-A750 deletion and T790M Mutation, was transfected into HEK293 cells by the Trans-Lentiviral ORF Packaging System (Thermo Scientific), to produce virus encoding EGFR exon 19 deletion and T790M mutations. Ba/F3 (DSMZ) cells maintained in RPM11640 medium supplemented with 10% fetal bovine serum, 200 pM L-glutamine/200 μg/mL penicillin/200 μg/mL streptomycin (Life Technology) and 10 ng/mL IL-3 (R&D system), were infected by EGFR E746-A750 deletion and T790M Mutation virus and subsequently selected by puromycin (Life Technology) selection and IL-3 depletion. Ba/F3 cells expressing EGFR E746-A750 deletion and T790M Mutation (named Ba/F3-EGFR-Del/T790M) can proliferate in the absence of IL-3. The anti-proliferative activity of compounds was determined as follows: BaF3-EGFR-Del/T790M cells seeded in 96 well plates (2500 cells/well) were treated with test compound (dissolved in DMSO) at a series of concentrations (4-fold dilution, top concentration: 10,000 nM). The plates were incubated for 72 h in a 37° C. incubator with 5% CO2, and the number of viable cells in each well were measured indirectly by CellTiter 96® Aqueous One Solution Cell Proliferation Assay (Promega; this assay is a colorimetric method for determining the number of viable cells through measurement of their metabolic activity by detection of enzymatic conversion of tetrazolium salts into blue formazan derivatives). Reagent (20 pL) was added into each well, and the plates were returned to the incubator for 2 h. The absorbance in each well was then measured at 490 nm using an Envision plate reader (Perkin Elmer). IC50 values were calculated by determining the concentration of compound required to decrease the MTS signal by 50% comparing to the DMSO control in best-fit curves using Microsoft XLfit software or Accelrys Pipeline Pilot.

In assay [3] the target is EGFR exon 20 NPG insertion (H773_V774insNPG) (Homo sapiens, UniProt P00533, cells depend on it, form not given). Briefly: Ba/F3-EGFR-Exon20-NPG cell anti-proliferation assay (MTS, CellTiter 96 AQueous One). Conditions: 72 h, MTS signal.
Chain of EGFR exon 20 NPG insertion (H773_V774insNPG) (P00533 with tags, fused parts or gaps INS772GNP, form open): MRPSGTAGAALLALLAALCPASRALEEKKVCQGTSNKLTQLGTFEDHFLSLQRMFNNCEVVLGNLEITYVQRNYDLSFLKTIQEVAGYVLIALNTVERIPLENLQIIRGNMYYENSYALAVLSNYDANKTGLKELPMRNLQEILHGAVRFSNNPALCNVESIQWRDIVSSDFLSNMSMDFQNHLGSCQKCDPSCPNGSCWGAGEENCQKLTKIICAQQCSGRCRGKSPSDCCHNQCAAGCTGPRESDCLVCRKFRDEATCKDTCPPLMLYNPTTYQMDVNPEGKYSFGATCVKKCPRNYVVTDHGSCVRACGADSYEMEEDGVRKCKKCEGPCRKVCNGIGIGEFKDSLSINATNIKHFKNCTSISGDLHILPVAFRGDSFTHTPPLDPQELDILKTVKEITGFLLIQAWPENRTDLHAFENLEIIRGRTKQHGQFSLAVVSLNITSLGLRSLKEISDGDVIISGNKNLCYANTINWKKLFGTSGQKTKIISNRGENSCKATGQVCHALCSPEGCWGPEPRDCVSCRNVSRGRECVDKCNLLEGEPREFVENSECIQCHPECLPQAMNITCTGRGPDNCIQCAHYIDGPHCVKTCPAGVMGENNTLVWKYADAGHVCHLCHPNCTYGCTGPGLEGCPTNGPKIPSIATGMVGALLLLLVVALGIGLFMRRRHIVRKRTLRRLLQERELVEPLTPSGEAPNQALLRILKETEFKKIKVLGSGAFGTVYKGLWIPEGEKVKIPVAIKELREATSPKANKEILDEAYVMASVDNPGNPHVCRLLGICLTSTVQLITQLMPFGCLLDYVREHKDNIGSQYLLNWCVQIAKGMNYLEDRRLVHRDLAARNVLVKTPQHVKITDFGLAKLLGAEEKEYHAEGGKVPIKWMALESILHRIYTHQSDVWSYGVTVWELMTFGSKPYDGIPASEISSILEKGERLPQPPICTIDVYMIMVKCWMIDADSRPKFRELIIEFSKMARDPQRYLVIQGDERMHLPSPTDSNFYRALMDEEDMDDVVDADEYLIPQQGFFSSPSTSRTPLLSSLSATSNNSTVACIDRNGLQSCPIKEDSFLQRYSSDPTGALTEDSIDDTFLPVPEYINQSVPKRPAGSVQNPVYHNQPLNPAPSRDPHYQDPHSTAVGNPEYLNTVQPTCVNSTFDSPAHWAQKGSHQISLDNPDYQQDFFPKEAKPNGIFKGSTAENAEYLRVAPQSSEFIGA
Text: as §1

The target of assay [4] is T3, Her2 exon 20 YVMA insertion (A775_G776ins YVMA) (Homo sapiens, UniProt P04626, INS775YVMA).
T3 construct: expressed in transfected cells; host or cells: Ba/F3 (murine pro-B) cells, lentiviral transduction with pLVX-IRES puro
T3 sequence (P04626 with tags, fused parts or gaps INS775YVMA): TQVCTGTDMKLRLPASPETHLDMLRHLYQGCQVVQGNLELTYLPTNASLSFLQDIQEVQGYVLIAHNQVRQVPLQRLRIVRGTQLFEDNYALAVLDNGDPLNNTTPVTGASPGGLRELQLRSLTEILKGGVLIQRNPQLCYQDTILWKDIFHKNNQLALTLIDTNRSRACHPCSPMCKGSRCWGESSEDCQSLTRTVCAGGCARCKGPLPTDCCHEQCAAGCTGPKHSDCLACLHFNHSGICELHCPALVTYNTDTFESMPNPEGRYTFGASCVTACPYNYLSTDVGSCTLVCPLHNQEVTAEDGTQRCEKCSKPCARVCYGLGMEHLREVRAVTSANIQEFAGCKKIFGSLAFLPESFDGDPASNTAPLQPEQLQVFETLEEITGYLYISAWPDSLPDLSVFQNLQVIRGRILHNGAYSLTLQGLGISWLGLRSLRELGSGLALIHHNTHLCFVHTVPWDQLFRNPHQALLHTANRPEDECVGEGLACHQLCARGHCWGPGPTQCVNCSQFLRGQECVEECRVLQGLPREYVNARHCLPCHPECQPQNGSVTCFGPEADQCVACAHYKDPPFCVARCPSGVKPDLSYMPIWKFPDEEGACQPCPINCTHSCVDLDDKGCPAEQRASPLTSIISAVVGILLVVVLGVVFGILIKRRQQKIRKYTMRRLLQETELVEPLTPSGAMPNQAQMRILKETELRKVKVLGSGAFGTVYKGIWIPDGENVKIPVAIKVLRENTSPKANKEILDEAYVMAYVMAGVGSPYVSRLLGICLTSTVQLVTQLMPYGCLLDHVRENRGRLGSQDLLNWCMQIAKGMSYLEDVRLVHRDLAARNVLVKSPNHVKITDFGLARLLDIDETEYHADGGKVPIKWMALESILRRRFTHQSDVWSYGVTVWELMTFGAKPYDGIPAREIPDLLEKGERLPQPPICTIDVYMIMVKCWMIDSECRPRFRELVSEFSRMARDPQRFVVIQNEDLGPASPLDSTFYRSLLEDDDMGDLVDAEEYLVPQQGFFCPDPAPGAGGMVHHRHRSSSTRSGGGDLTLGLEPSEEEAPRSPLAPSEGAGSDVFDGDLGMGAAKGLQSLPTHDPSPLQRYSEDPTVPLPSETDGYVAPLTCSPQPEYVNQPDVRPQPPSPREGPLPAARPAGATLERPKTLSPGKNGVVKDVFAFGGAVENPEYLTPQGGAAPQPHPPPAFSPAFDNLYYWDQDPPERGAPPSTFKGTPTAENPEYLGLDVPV
The assay is described as follows: Ba/F3-Her2 Exon20 YVMA cell anti-proliferation assay (MTS). Conditions: Ba/F3-Her2 Exon20 YVMA cells, 72 h, MTS signal. From the text:
A compound's ability in selectively inhibiting Her2 exon 20 YVMA insertion mutations can be assessed using Ba/F3 cells, a murine pro-B cell line, which have been transduced with Her2 Exon20 YVMA insertions. An expression vector, pLVX-IRES puro (Clontech) coding for human EGFR exon 20 insertions YVMA (A775_G776ins YVMA), was transfected into HEK293 cells by the Trans-Lentiviral ORF Packaging System (Thermo Scientific), to produce virus encoding EGFR exon 20 insertions. Ba/F3 (DSMZ) cells maintained in RPM11640 medium supplemented with 10% fetal bovine serum, 200 pM L-glutamine/200 μg/mL penicillin/200 μg/mL streptomycin (Life Technology) and 10 ng/mL IL-3 (R&D system), were infected by EGFR Exon20 virus and subsequently selected by puromycin (Life Technology) selection and IL-3 depletion. Ba/F3 cells expressing Her2 Exon20 YVMA insertions (named Ba/F3-Her2 Exon20 YVMA) can proliferate in the absence of IL-3. The anti-proliferative activity of compounds was determined as follows: BaF3-Her2 Exon20 YVMA cells seeded in 96 well plates (2500 cells/well) were treated with test compound (dissolved in DMSO) at a series of concentrations (4-fold dilution, top concentration: 10,000 nM). The plates were incubated for 72 h in a 37° C. incubator with 5% CO2, and the number of viable cells in each well were measured indirectly by CellTiter 96® Aqueous One Solution Cell Proliferation Assay (Promega; this assay is a colorimetric method for determining the number of viable cells through measurement of their metabolic activity by detection of enzymatic conversion of tetrazolium salts into blue formazan derivatives). Reagent (20 pL) was added into each well, and the plates were returned to the incubator for 2 h. The absorbance in each well was then measured at 490 nm using an Envision plate reader (Perkin Elmer). IC50 values were calculated by determining the concentration of compound required to decrease the MTS signal by 50% comparing to the DMSO control in best-fit curves using Microsoft XLfit software or Accelrys Pipeline Pilot.

T1 sequence (P00533 with tags, fused parts or gaps INS769ASV): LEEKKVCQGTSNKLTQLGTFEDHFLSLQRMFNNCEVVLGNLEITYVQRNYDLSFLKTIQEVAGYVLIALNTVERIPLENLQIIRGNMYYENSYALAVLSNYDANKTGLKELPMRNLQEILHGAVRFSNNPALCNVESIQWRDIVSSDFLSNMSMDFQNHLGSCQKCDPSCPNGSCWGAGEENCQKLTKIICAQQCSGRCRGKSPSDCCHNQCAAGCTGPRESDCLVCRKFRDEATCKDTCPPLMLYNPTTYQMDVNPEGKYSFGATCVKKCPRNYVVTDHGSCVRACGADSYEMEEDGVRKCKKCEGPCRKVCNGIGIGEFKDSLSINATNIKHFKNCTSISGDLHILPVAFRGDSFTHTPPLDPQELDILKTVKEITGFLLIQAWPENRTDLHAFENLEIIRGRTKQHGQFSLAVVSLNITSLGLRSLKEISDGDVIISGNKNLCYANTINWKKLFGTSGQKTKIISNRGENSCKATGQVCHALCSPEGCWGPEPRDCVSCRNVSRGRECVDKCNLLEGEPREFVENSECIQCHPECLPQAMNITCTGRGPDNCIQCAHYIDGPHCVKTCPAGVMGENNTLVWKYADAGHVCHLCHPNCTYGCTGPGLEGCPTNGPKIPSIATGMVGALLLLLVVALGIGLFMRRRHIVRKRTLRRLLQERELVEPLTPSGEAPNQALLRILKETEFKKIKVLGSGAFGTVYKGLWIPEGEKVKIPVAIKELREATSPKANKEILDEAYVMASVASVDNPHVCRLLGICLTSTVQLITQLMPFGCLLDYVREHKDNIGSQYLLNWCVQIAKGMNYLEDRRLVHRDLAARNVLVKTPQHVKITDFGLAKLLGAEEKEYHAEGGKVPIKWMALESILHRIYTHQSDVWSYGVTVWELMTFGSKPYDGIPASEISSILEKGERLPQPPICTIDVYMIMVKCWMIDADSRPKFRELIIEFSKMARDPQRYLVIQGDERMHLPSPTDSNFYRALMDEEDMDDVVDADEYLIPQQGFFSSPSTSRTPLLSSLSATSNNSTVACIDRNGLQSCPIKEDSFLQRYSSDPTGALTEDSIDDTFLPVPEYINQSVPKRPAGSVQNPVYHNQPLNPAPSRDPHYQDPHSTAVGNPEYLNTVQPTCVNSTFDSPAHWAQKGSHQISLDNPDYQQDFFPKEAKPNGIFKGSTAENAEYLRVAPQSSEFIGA

As to `C=CC(=O)Nc1cc(Nc2ncc(C#N)c(-c3c4n(c5ccccc35)CCOC4)n2)c(OC)cc1N(C)CCN(C)C` [Example 8, N-(5-((5-cyano-4-(3,4-dihydro-1H-[1,4]oxazino[4,3-a]indol-10-yl)pyrimidin-2-yl)amino)-2-((2-(dimethylamino)ethyl)(methyl)amino)-4-methoxyphenyl)acrylamide], the half-inhibitory concentration (IC50) (as a rule, the point on the concentration scale where inhibition reaches its midpoint) in assay [1] was 0.1 to 0.5 µM; in assay [3], less than 0.1 µM; in assay [4], 0.1 to 0.5 µM. Moreover, the “EGFR exon 19 deletion and T790M mutation IC50” value in assay [2] is given as “A (Group A compounds have an IC50 value for the indicated mutant below about 100 nM)”.
Turning to `C=CC(=O)Nc1cc(Nc2ncc(Cl)c(-c3c4n(c5ccccc35)CCOC4)n2)c(OC)cc1N(C)CCN(C)C` [Example 9, N-(5-((5-chloro-4-(3,4-dihydro-1H-[1,4]oxazino[4,3-a]indol-10-yl)pyrimidin-2-yl)amino)-2-((2-(dimethylamino)ethyl)(methyl)amino)-4-methoxyphenyl)acrylamide], the IC50 in assay [1] was more than 1 µM; in assay [3] it was 0.5 to 1 µM; in assay [4] it was more than 1 µM. In assay [2], the “EGFR exon 19 deletion and T790M mutation IC50” value was “A (Group A compounds have an IC50 value for the indicated mutant below about 100 nM)”.
